Laboratory results published in US10660855B2 (priority 2019, dated 2020).

Key:
[1] = Water-solubility / water-dispersing ability (FIG. 1); assay type: physicochemical; conditions: FIG. 1, dispersed in water, bottle A vs bottle B
[2] = cited from earlier work

Cannabidiol [CBD]
water-dispersing ability [1]: insoluble in water
half-life ([2]; in vivo): about 9 hours
bioavailability when being used nasally (inhalantly) ([2]; nasal (inhalation)): about 31%
bioavailability when being used orally ([2]; oral): 13-19%
